Measured values taken from PubChem BioAssay (NCI).
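Interpolation was linear, between the two tested concentrations surrounding the appropriate level; five concentrations were tested over 48 hours in 96-well plates. GI50 = concentration required for 50% inhibition of growth. The concentration for full growth arrest is given as TGI.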

Legend:
Assay in all cases: DTP human tumour cell line panel, 48 h
[1] = tested on: A498 renal
[2] = tested on: COLO 205 colon
[3] = tested on: HCC-2998 colon
[4] = tested on: HCT-116 colon
[5] = tested on: KM12 colon
[6] = tested on: MOLT-4 leukemia
[7] = tested on: NCI-H23 lung
[8] = tested on: RXF 393 renal
[9] = tested on: TK-10 renal
[10] = tested on: UACC-62 melanoma

SMILES | GI50 [1] [µM] | TGI [1] [µM] | GI50 [2] [µM] | TGI [2] [µM] | GI50 [3] [µM] | TGI [3] [µM] | GI50 [4] [µM] | TGI [4] [µM] | GI50 [5] [µM] | TGI [5] [µM] | GI50 [6] [µM] | TGI [6] [µM] | GI50 [7] [µM] | TGI [7] [µM] | GI50 [8] [µM] | TGI [8] [µM] | GI50 [9] [µM] | TGI [9] [µM] | GI50 [10] [µM] | TGI [10] [µM]
O=c1cc(NCC(O)CN2CCCC2)n(Cc2ccccc2)c(=O)n1Cc1ccccc1 (centres undefined) | > 100 | > 100 | 19.3 | 40.4 | 25.8 | 77.7 | 13.6 | 33.3 | 18.5 | 36.5 | 24.3 | 72.8 | 92 | > 100 | 46 | > 100 | > 100 | > 100 | 20.9 | 47.3
COc1cc2ncnc(-n3ncc4cc(NC(=O)Nc5ccccc5)ccc43)c2cc1OC | 0.21 | 0.896 | 1.32 | 4.53 | 1.88 | 11.2 | 1.41 | 4.82 | 0.207 | 5.27 | 0.86 | 3.56 | 1.3 | 4.4 | 1.04 | 2.76 | 0.724 | 2.56 | 1.23 | 6.27
C/C(=N\Nc1ccc(Cl)cn1)c1ccc2ccccc2n1 | 33.4 | > 100 | 2.98 | > 100 | 3.23 | > 100 | 1.59 | > 100 | 3.15 | > 100 | 1.26 | > 100 | 3.55 | > 100 | 2.95 | > 100 | 6.31 | > 100 | 3.25 | > 100
CC1=[N+]([O-])c2ccccc2C(=O)C1=O |  | > 100 |  | > 100 |  | > 100 |  | > 100 |  | > 100 |  | > 100 |  | > 100 |  | > 100 |  | > 100 |  | > 100
CCCCC(CC)COC(=O)C[N+](C)(C)CCOC(c1ccccc1)c1ccccc1 (centres undefined) | 3.12 | 15.2 | 1.93 | 4.12 | 1.75 | 3.29 | 1.8 | 3.32 | 1.78 | 3.44 | 2.5 | 6.66 | 3.77 | 15.9 | 1.48 | 3.34 | 4.26 | 17.6 | 1.67 | 3.16
COc1cc(/C=C/c2ccc(OC)c(O)c2)cc(OC)c1 |  | > 100 |  | 59.3 |  | 42.6 |  | 12.3 |  | 28.3 |  | 15.7 |  | 12.5 |  | 3.88 |  | 91.4 |  | 15.1
CCCCCCCCCCCCCCCC(=O)OCC(C[As](=O)(O)O)OC(=O)CCCCCCCCCCCCCCC (centres undefined) |  | > 100 |  | > 100 |  | > 100 |  | > 100 |  | > 100 |  | > 100 |  | > 100 |  | > 100 |  | > 100 |  | > 100
CN1CCN(CCCNc2nc3ccc(Oc4ccc(NC(=O)Nc5cc(C(F)(F)F)ccc5F)cc4)cc3[nH]2)CC1 | 2.93 | > 18.9 | 4.5 | 7.97 | 4.35 | 8.1 | 4.28 | 7.99 | 3.44 | 6.74 | 4.83 | 9.89 | 4.03 | 7.9 | 4.07 | 9.17 | 3.93 | 9.07 | 4.1 | 7.66
NS(=O)(=O)c1ccc(-c2ccc3c(NC(=O)C4CC4)n[nH]c3c2)cc1 | > 25 | > 25 | > 25 | > 25 | > 25 | > 25 | > 25 | > 25 | > 25 | > 25 | > 25 | > 25 | > 25 | > 25 | > 25 | > 25 | > 25 | > 25 | > 25 | > 25
CN(C)CCNc1ccc(CO)c2oc3ccc(O)cc3c(=O)c12 |  | 28.3 |  | 21.6 |  | 27.9 |  | 52.2 |  | 40 |  | 14.3 |  | 24.6 |  | 28.4 |  | 69 |  | 25
CC1=C(/C=C/Cl)CC(Cl)C(C)(Cl)C1 (centres undefined) |  | > 100 |  | > 100 |  | > 100 |  | > 100 |  | > 100 |  | > 100 |  | > 100 |  | 71.3 |  | > 100 |  | > 100
O=C1C2C3C=C4c5ccccc5N(c5ccccc5)C4(C2C(=O)N1c1ccc([N+](=O)[O-])cc1)[C@H]1C(=O)N(c2ccc([N+](=O)[O-])cc2)C(=O)[C@@H]31 (some centres undefined) |  | > 100 |  | > 100 |  | > 100 |  | > 100 |  | > 100 |  | > 100 |  | > 100 |  | > 100 |  | > 100 |  | > 100
COc1ccc(-c2[nH]c3ccc(OC)cc3c2/C=C(\C#N)S(=O)(=O)c2ccccc2)cc1 | 0.966 | 8.18 | 0.396 | 1.83 | 1.95 | 5.87 | 0.53 | > 100 | 0.653 | 7.69 | 0.745 | > 20.2 | 0.965 | > 33.3 | > 100 | > 100 | 4.56 | > 100 | 0.644 | > 61.1
Nc1nc(Nc2cccnc2)sc1C(=O)c1ccccc1F | 2.59 | 7.02 | 1.78 | 4.68 | 0.309 | 0.972 | 2.51 | > 100 | 3.06 | 32.5 | 2.52 | > 26.6 | 2.55 | 12.4 | 1.9 | 4.39 | 4.09 | 49.9 | 1.78 | 5.34
CNC(=S)/N=C(\N)N(C)C |  | > 100 |  | > 100 |  | > 100 |  | > 100 |  | > 100 |  | > 100 |  | > 10 |  | > 100 |  | > 100 |  | > 100
CCc1nc2cc(F)c(/C=C/C(=O)NO)cc2c(=O)n1CCc1ccccc1 | 0.149 | 0.736 | 0.221 | 0.537 | 0.381 | 12.7 | 0.313 | 11 | 0.412 | 15 | 0.353 | 29.1 | 0.375 | 7.07 | 0.23 | 0.731 | 0.256 | 0.838 | 0.235 | 0.699
N#Cc1cc(-c2cc3ccccc3o2)oc1N | 1.76 | 4.68 | 2.06 | 4.74 | 4.92 | 18.9 | 3.65 | 12.2 | 3.58 | 11.8 | 1.94 | 6.64 | 3.9 | 22.8 | 3.96 | 13.5 | 6.61 | 34.8 | 3.79 | 17.2
Cc1ccc(NC(=O)c2cccc(C(C)(C)C#N)c2)cc1Nc1ccc2ncn(C)c(=O)c2c1 | 0.742 | 4.08 | 0.0257 | 92.2 | 0.0676 | > 100 | 0.1 | > 100 | 1.66 | > 100 | 5.2 | > 100 | 0.304 | > 100 | 6.87 | > 73.4 | 2.9 | > 100 | 0.0275 | 
COc1ccc(CN2CC(C)(C)C2=O)c(OC)c1 |  | > 100 |  | > 100 |  | > 100 |  | > 100 |  | > 100 |  | > 100 |  | > 100 |  | > 100 |  | > 100 |  | > 100
